“And” between values parts separate entries of the source, which are not always exact repeats. Equal values may be shown once.

Data set [1] has as its system H1650. The data set can be described thus: H1650 Cell Viability Assays (GI50 Determination), MTT. Format: cell-based. The conditions noted are these: Homo sapiens, NCI-H1650, H1650 cells, 48 hours after drug treatment. The procedure: H1650 Cell Viability Assays (GI50 Determination)
Cell viability assays were performed according to Denizot, F. and R. Lang, Rapid colorimetric assay for cell growth and survival: Modifications to the tetrazolium dye procedure giving improved sensitivity and reliability Journal of Immunological Methods, 1986. 89[…]: p. 271-277.
Cells were plated at 150,000 cells per well in a 12 well plate. Twenty-four hours after plating, cells were treated as described with increasing concentrations of drug and control. Forty-eight hours after drug treatment, cells were treated with 100 uL of 3-(4,5-Dimethylthiazol-2-yl)-2,5-diphenyltetrazolium bromide (MTT) and incubated for 2 hours at 37 C. The MTT solution was subsequently replaced with 300 uL of n-propyl alcohol and re-aliquoted to a 96 well plates. Spectrophotometric analysis of each solution was performed using a 96 well plate reader at 600 nm in triplicate.

Data set [2] concerns Molt4 cells. The experiment in a line: MTS Cell Proliferation Assay (CellTiter96 AQueous). Format: cell-based. Conditions: Homo sapiens, MOLT-4, 48 hours, average of 3 biological replicates. The procedure: MTS Cell Proliferation Assay GI50 for Example 3a and 3b for Molt4 cells was measured using the CellTiter96 AQueous Non-Radioactive Cell Proliferation Assay (Promega). Briefly, two technical replicates of 1×10^5 cells suspended in 50 μL RPMI-1640 media were pipetted per well into a 96-well plate for each condition. An equal volume of Example 3a or 3b was dissolved in media or vehicle control (DMSO) was added to each well for final concentration of 0, 5, 10, 15, 20, 30, 40, or 80 μM of 3a or 3b. Cells were allowed to grow for 48 hours at 37° C. with 5% CO2, after which 20 μL of MTS/PMS solution was added to each well and cells were incubated for an additional 4 hrs. At the end of the incubation period, A490 was read on a Biotek uQuant spectrophotometer to measure formazen production. Relative viability was calculated as A490 for each drug condition relative to vehicle alone.

Data set [3] in a line: Observation for signs of toxicity and body weights in the mouse tumor assay. Type of data set: in vivo. Conditions: mice, 100 mg/kg BID oral, 31 days. How it is done:
(§1) To assess the in vivo effects of the compounds, subcutaneous xenograft of prostate cancer cell line LNCaP was generated. Cells (5×10^6, 0.1 mL in 1:1 Matrigel:Media) were injected into the right flank of 8-week-old male SCID nude castrated mice (NCI). Tumor volume was assessed three times a week by caliper measurement. Mice were randomized to treatment groups based on initial tumor volume average of 247 mm^3 per group. Mice were dosed by oral gauvage with 100 mg/kg of Example 3a twice daily (BID) as a suspension in 0.1% Tween80/0.5% sodium carboxymethylcellulose (CMC) in water. […] Mouse body weights were recorded weekly and percentage of mice body weights during treatment was calculated as: weight at each time point/initial weight×100. […] Mice underwent treatment for 31 days and were sacrificed 2 hours after the last dose. Tumors were then excised and cut for both formalin-fixation and snap frozen in liquid nitrogen. No statistically significant toxicity was observed as judged from animal body weights of compound treated groups versus vehicle control group.

For data set [4], the system named is prostate cancer cell line LNCaP. The data set can be described thus: Mouse Tumor Assay: subcutaneous xenograft of prostate cancer cell line LNCaP. The conditions noted are these: LNCaP xenograft in male SCID nude castrated mice, 100 mg/kg BID oral gavage. Type of data set: in vivo. The procedure: as §1, with “Mouse Tumor Assay To” for “To”

Consider `O=S(=O)(N[C@H]1CCC[C@@H](N2c3ccccc3CCc3ccccc32)[C@@H]1O)c1ccc(OC(F)(F)F)cc1` [Example 3a], for which the figures for the 50% growth inhibitory concentration (GI50) in data set [1] and in data set [2] were 5 µM and 6 µM, respectively. In addition, the “signs of toxicity (mucous diarrhea, abdominal stiffness and weight loss)” value in data set [3] is on record as “no adverse signs were observed”. Moreover, in data set [4] (31 days), the Mean Tumor Volume(T) stood at 485 mm³. For the same molecule, in data set [4] (end of experiment (31 days), tumor versus vehicle control, 100 mg/kg), the “% T/C” value was 35% and 34.6%.
